Assays:
[1] = system: cultured human fungiform taste papillae cells (HBO cells); experiment: Calcium imaging of cultured human fungiform taste papillae (HBO) cells: response frequency, estimation of sweet potency; assay type: cell-based
Description: In vitro cell-based assay of sweet property. Establishment and maintenance of cultures of human fungiform taste papillae cells (HBO cells): We previously established the current proprietary protocol (Ozdener, H., et al., Chem. Senses, 31(3): 279-90 (2006); Ozdener, M. H., et al., Chem. Senses, 36(7): 601-12 (2011); Ozdener, H., et al., Isolation and culture of human fungiform taste papillae cells, J. Vis. Exp., 2012 May 17;(63):e3730) which allowed us to culture human fungiform taste papillae cells retaining their physiological and molecular characteristics for more than a year. […] The human fungiform taste papillae cells were cultured according to protocols that we have published (Ozdener et al. 2006, Ozdener et al. 2011). Human fungiform taste papillae were removed and immediately placed into an isolation solution followed by enzymatic digestion. Digested fungiform papillae were then gently minced with a surgical razor and seeded on collagen type-1 coated coverslips and incubated at 36° C. in a humidified environment containing 5% CO2. The fungiform taste papillae cells were cultured in Iscove's Modified Dulbecco's medium containing 10% fetal bovine serum, 1:5 ratio of MCDB (Molecular, Cellular, and Developmental Biology) 153 medium, and a triple cocktail of antibiotics (100 U/mL/100 μg/mL, penicillin/streptomycin, and 0.5 μg/mL fungizone). Culture medium was replaced every 5-7 days by one-third of fresh culture medium. Human fungiform taste papillae cells have been maintained in culture for a period of more than 1 year without loss of viability and with retention of the molecular and biochemical properties of acutely isolated taste cells (Ozdener et al., 2011). Calcium imaging: Cultured taste cells grown for 3-4 days glass coverslips which were loaded for 30-60 min with the calcium sensitive dye fura-2 by incubating the cells in Ringer solution (145 mM NaCl, 5 mM KCl, 1 mM MgCl2, 1 mM CaCl2, 1 mM Na-pyruvate, 20 mM Hepes-Na and Cellobiose 15 mM, pH 7.2 with osmolarity adjusted to 300-310 by 5M NaCl) supplemented with […] (Molecular Probes Inc., Eugene, Oreg.) and 10 mg/ml Pluronic® F127 (Molecular Probes Inc.). Coverslips were then placed in a recording chamber and continuously bathed with Ringer solution superfusion. Stimuli were dissolved in Ringer and then pH and osmolarity readjusted if needed. Cells were exposed to sweet ([…]), bitter mixture (PTC (phenylthiocarbamide)) 2mM+Salicin 5 mM+Denatonium 2 mM), guaifenesin (GF, 3 mM) and acetaminophen (APAP, 3 mM), and various sophorolipids stimuli: sophorose, sophorolipid palmitic acid, sophorolipid stearic acid, sophorolipid oleic acid. […]

[2] = system: chorda tympani nerve of wild-type B6 mice; experiment: Chorda tympani whole-nerve responses to lingual taste stimuli, wild-type B6 mice; assay type: in vivo; conditions: lingual application (FIG. 6B, 7)
Method: (§1) Mouse model for sweet property and bitter-masking assay. Recordings of chorda tympani (CT) whole-nerve responses: All protocols involving animals were approved by the Institutional Animal Care and Use Committees at the Monell Center prior to the experiments. The study was performed with mice from two strains: C57BL/6J inbred strain (B6; Jackson Laboratory, Bar Harbor, Me.) bearing the wild-type Tas1r3 allele was used as the control, and the C57BL/6J-Tas1r3^tm1Rjm “gene-knockout” strain (T1R3-KO) lacking the entire T1R3 coding region and devoid of T1R3 protein ([…]., et al., Science, 301: 850-853 (2003)). Afferent signals from taste cells are relayed to the brain via three major gustatory nerves: the chorda tympani, glossopharyngeal, and greater superficial petrosal. […] Neural responses resulting from chemical stimulations of the tongue were fed into an amplifier (Grass Instruments, West Warwick, R.I.) and monitored on an oscilloscope and an audio monitor. Whole-nerve responses were integrated with a time constant of 1.0 s and recorded using a computer for later analysis using a PowerLab system (PowerLab/sp4; AD Instruments, Colorado Springs, Colo.). […] To analyze nerve responses to each stimulus, the magnitudes of integrated responses at 5, 10, 15, 20, and 25 s after stimulus onset were measured and averaged. […]

[3] = system: T1R3; experiment: Chorda tympani whole-nerve responses to lingual taste stimuli, T1R3-KO mice; assay type: in vivo; conditions: lingual application (FIG. 6A, 7)
Method: as §1

Compound | %-responsive cells ([1]; cultured human taste cells, concentration 5 mM) [%] | Concentration adjusted response frequency ([1]; tested at 5 mM, sucralose 5 mM is the standard) | chorda tympani responses [2] | chorda tympani responses [3]
OC[C@H]1O[C@H](O[C@]2(CCl)O[C@H](CCl)[C@@H](O)[C@@H]2O)[C@H](O)[C@@H](O)[C@H]1Cl [Sucralose, sucralose] | 16.67 | 16.67 |  | 
OC[C@H]1O[C@@](CO)(O[C@H]2O[C@H](CO)[C@@H](O)[C@H](O)[C@H]2O)[C@@H](O)[C@@H]1O [sucrose] |  |  | present | nearly absent
